Source: the NIST ThermoML archive (doi:10.1016/j.fluid.2013.09.028)
Numbers after ± are expanded uncertainties. Values belong to the compound of their own block, whether it stands above or below them.

Experiment: refractive index (Na D-line) (dimensionless); wn = mass fraction of the nth substance listed
Settings: 298.15 K, 101 kPa, Liquid, Standard Abbe refractometry

- refractive index (w1 = 0.0958): 1.3462 ± 0.0005
- refractive index (w1 = 0.0961): 1.3462 ± 0.0005
SMILES: CN1CCCC1=O [N-methylpyrrolidone] + O

- refractive index (w1 = 0.0473): 1.3425 ± 0.0005
- refractive index (w1 = 0.0477): 1.3404 ± 0.0005
SMILES: CC#N [acetonitrile] + O

- refractive index (w1 = 0.0473): 1.3426 ± 0.0005
- refractive index (w1 = 0.097): 1.3378 ± 0.0005
SMILES: O=C([O-])[O-].[Na+].[Na+] [sodium carbonate] + O

- refractive index (w1 = 0.0475): 1.3401 ± 0.0005
- refractive index (w1 = 0.0968): 1.3378 ± 0.0005
SMILES: O=C([O-])[O-].[K+].[K+] [potassium carbonate] + O
